This is an account of results in ChEMBL document CHEMBL6120988, “Mitochondria-targeting artesunate-rhein conjugates: Linker-modulated cell-permeability, heme-affinity and anticancer activity” (Eur J Med Chem, 2025).

Calls of active or inactive are those of the source. No cut-off for these calls is given here.

Data set [1] in a line: Drug localization in mitochondria of mouse 4T1 cells assessed as fluorescence intensity measured using pearson co-efficient incubated for 10 hrs by mito-tracker red fluorescent dye based confocal laser scanning microscopic analysis. It counts as ADME. To be noted: 4t1, 10 h.
For data set [2], the system named is 4T1. Description: Induction of apoptosis in mouse 4T1 cells assessed as late apoptotic cells by Annexin V-FITC and PI staining based flow cytometry analysis (reference value: 0.13 %). It counts as functional. In general terms: Flow cytometry measures light scatter and fluorescence of single cells or particles in a stream.
Data set [3] has as its system 4T1. Description: Induction of ROS production in mouse 4T1 cells assessed as increase in intracellular ROS level by […] staining based flow cytometry (reference value: 7.8%). Format: functional.
In data set [4] the test system is 4T1. Description: Induction of apoptosis in mouse 4T1 cells assessed as early apoptotic cells by Annexin V-FITC and PI staining based flow cytometry analysis(reference value: 3.60 %). Format: functional.
The test system of data set [5] is MCF7. Description: Cytotoxicity against human MCF7 cells assessed as cell viability by MTT assay. It counts as functional, cell-based.
The subject of data set [6] is 4T1. Description: Cytotoxicty against mouse 4T1 cells assessed as cell viability by MTT assay. Format: functional, cell-based. For orientation: Tetrazolium dyes change colour on reduction, which living cells bring about.
For data set [7], the system named is U-87 MG. Description: Cytotoxicity against human U87 cells assessed as cell viability by MTT assay. It counts as functional, cell-based, U-87MG ATCC.
The subject of data set [8] is HeLa. As to the kind of experiment: Cytotoxicity against human Hela cells assessed as cell viability by MTT assay. It counts as functional, cell-based.
For data set [9], the system named is Mitochondrial membrane. As to the kind of experiment: Induction of mitochondrial membrane potential loss in mouse 4T1 cells assessed as increase in green fluorescence by JC-1 staining based flow cytometric analysis (reference value: 7.4 %). It counts as cell membranes.
Data set [10] concerns 4T1. As to the kind of experiment: Cytotoxicty against mouse 4T1 cells assessed as cell death by measuring red staining by calcein/PI staining based live/dead staining analysis. It counts as functional.
For data set [11], the system named is 4T1. As to the kind of experiment: Induction of apoptosis in mouse 4T1 cells assessed as necrotic cells by Annexin V-FITC and PI staining based flow cytometry analysis (reference value: 0.085 %). It counts as functional.
For data set [12], the system named is A549. Description: Cytotoxicity against human A549 cells assessed as cell viability by MTT assay. It counts as functional, cell-based.
Data set [13] relates to 4T1. As to the kind of experiment: Induction of apoptosis in mouse 4T1 cells assessed as viable cells by Annexin V-FITC and PI staining based flow cytometry analysis (reference value: 96.2 %). It counts as functional.
In data set [14] the test system is 4T1. Description: Induction of immunogenic cell death in mouse 4T1 cells assessed as increase in CRT expression by flow cytometry analysis (reference value: 2.55%). Format: functional.
The test system of data set [15] is 4T1. Description: Induction of immunogenic cell death in mouse 4T1 cells assessed as increase in CRT exposure on cell surface by measuring increase in red fluorescence by CLSM analysis (reference value: 2.55%). It counts as functional.

On to `C[C@H]1[C@H](OC(=O)CCC(=O)OCCOC(=O)c2cc(O)c3c(c2)C(=O)c2cccc(O)c2C3=O)O[C@@H]2O[C@@]3(C)CC[C@H]4[C@H](C)CC[C@@H]1[C@@]24OO3`, for which, in data set [1], the Flu intensity amounted to 0.91. The Activity was found to be 26.7% in [2]; 39.6% in [3]; 13.9% in [4]; 39.2% in [9]; 6.81% in [11]; 52.6% in data set [13]. The IC50 – broadly, the concentration that gives 50% inhibition – in data set [5] stood at 2230 nM; in data set [6], 1400 nM; in data set [7], 2440 nM; in data set [8] it was 2770 nM; in data set [12], 3010 nM. Also, the result in [10] was Active.

As for `C[C@H]1[C@H](OC(=O)CCC(=O)O)O[C@@H]2O[C@@]3(C)CC[C@H]4[C@H](C)CC[C@@H]1[C@@]24OO3` [ARTESUNATE], the Activity worked out at 2.24% in [2]; 14.3% in [3]; 6.46% in data set [4]; 9.59% in [14]; 14.8% in data set [9]; 0.71% in data set [11]. Moreover, the Activity in [15] is reported as 9.59%; in data set [13], 90.6%. For the same compound, the IC50 in data set [5] was 12700 nM; in data set [6], 12000 nM; in data set [7] it was 13500 nM; in data set [8], 15400 nM; in data set [12], 14700 nM.

On to `C[C@H]1[C@H](OC(=O)CCC(=O)OCCCCCCOC(=O)c2cc(O)c3c(c2)C(=O)c2cccc(O)c2C3=O)O[C@@H]2O[C@@]3(C)CC[C@H]4[C@H](C)CC[C@@H]1[C@@]24OO3`, for which the Flu intensity in data set [1] was 0.95. Also, the Activity in [2] turned out to be 17.7%; in data set [3] it was 32.7%; in [4], 14.2%; in [9], 38.1%; in data set [11] it was 2.37%; in data set [13] it was 65.8%. In addition, the 50% inhibitory concentration (IC50) worked out at 2190 nM in data set [5]; 1800 nM in [6]; 2690 nM in data set [7]; 3110 nM in data set [8]; 3290 nM in data set [12]. Moreover, the result in data set [10] was Active.

Take `CC(=O)O[C@H]1C(=O)[C@@]2(C)[C@H]([C@H](OC(=O)c3ccccc3)[C@]3(O)C[C@H](OC(=O)[C@H](O)[C@@H](NC(=O)c4ccccc4)c4ccccc4)C(C)=C1C3(C)C)[C@]1(OC(C)=O)CO[C@@H]1C[C@@H]2O` [PACLITAXEL]: the IC50 in [6] is 3150 nM.

With `O=C(O)c1cc(O)c2c(c1)C(=O)c1cccc(O)c1C2=O` [RHEIN], the Flu intensity in data set [1] worked out at 0.93. For the same compound, the Activity is 0.86% in data set [2]; 11.8% in data set [3]; 4.28% in data set [4]; 3.82% in data set [14]; 11.4% in data set [9]; 0.83% in [11]. The values for the Activity in data set [15] and in data set [13] were 3.82% and 94%, respectively. The IC50 in data set [5] was found to be 56500 nM; in data set [6] it was 51500 nM; in [7], 47800 nM; in data set [8], 50800 nM; in data set [12] it was 53400 nM.

`C[C@H]1[C@H](OC(=O)CCC(=O)OCCCOC(=O)c2cc(O)c3c(c2)C(=O)c2cccc(O)c2C3=O)O[C@@H]2O[C@@]3(C)CC[C@H]4[C@H](C)CC[C@@H]1[C@@]24OO3`: the Flu intensity in [1] was 0.96. The Activity in data set [2] came to 21.6%; in data set [3], 31%; in data set [4], 14.9%; in data set [9], 37.3%; in data set [11], 3.35%; in data set [13] it was 60.1%. Also, the IC50 in [5] is 2430 nM; in data set [6] it was 1410 nM; in [7] it was 2560 nM; in data set [8], 2900 nM; in data set [12], 2930 nM. Moreover, in data set [10], the result was Active.

In the case of `C[C@H]1[C@H](OC(=O)CCC(=O)OCCCCCOC(=O)c2cc(O)c3c(c2)C(=O)c2cccc(O)c2C3=O)O[C@@H]2O[C@@]3(C)CC[C@H]4[C@H](C)CC[C@@H]1[C@@]24OO3`, the Flu intensity in data set [1] was determined as 0.94. The Activity in [2] worked out at 15.2%; in data set [3] it was 30%; in [4] it was 13%; in data set [9] it was 36.5%; in data set [11], 2.34%; in [13] it was 69.5%. Further, the IC50 in data set [5] was determined as 2270 nM; in data set [6], 1680 nM; in data set [7], 2910 nM; in data set [8], 2880 nM; in data set [12] it was 3190 nM. Moreover, in data set [10], the outcome was Active.
